# Experiments:
# [1] = Particle size distribution test, laser particle size analyzer, dry dispersion; format: physicochemical
# Experimental: The particle size distribution of DPI dry powder was measured by dry dispersion method using laser particle size analyzer, and Dv10, Dv50, Dv90, VMD (Volume median diameter) and SMD (Sauter mean diameter) were determined, respectively.
# [2] = test system: rats having Bleo-induced pulmonary fibrosis; assay: Total protein in bronchoalveolar lavage fluid (BALF), colorimetric; format: in vivo, rat; details: Bleo rats after 28 days of treatment, n = 6; Bleo group 17.04, normal 7.86
# Experimental: (§1) 48 SPF healthy SD male rats (weight of 180-220 g) were randomly divided into 8 groups, 6 rats for each group: (1) normal group (control group): normal rearing in the animal center; (2) sham group: this group was given the same dose of air by pulmonary administration; (3) Bleo model group: 100 μL of Bleo solution with a concentration of 12.5 mg/mL was administered through the tracheal intubation, and the rats were rotated for 5 min after drug administration for use, referred to as the Bleo group or the model group in the present application; (4) Bleo+BA-DPI group: the same modeling method as the Bleo model group was used, and BA-DPI was administered through the tracheal intubation via DP-4 rat dry powder lung drug delivery device (manufacturer: Beijing YSKD Biotechnology Co.) at a dose of 9 mg/kg, 3 mg per day for 28 days; (5) Bleo+AH-DPI group (same method as 4); (6) Bleo+BA/AH-DPI group (same method as 4); (7) Bleo+tail intravenous injection group: the formulation solution was administered by tail intravenous injection at a concentration of 3 mg/ml, 9 mg/kg, for a total of 28 days, starting from the second day after the modeling; (8) Bleo+pirfenidone group: 2 ml per day at a concentration of 11.6 mg/ml was administered by gavage starting from the second day after successful modeling for 28 days. […]
# [3] = test system: rats having Bleo-induced pulmonary fibrosis; assay: Determination of lung factor in rats; format: in vivo, rat; details: Bleo rats after 28 days of treatment, n = 6; Bleo group 9.45, normal 4.09
# Experimental: as §1
# MPO = assay: Myeloperoxidase (MPO) level in serum; format: in vivo, rat; details: Bleo rats after 28 days, compared with Bleo group
# Experimental: as §1
# [4] = test system: inflammatory factors IL-4, IL-6, IL-8, and IL-1β in BALF; assay: Inflammatory factors in BALF by ELISA; format: in vivo, rat; details: Bleo rats after 28 days, compared with Bleo group
# Experimental: as §1
# In order to verity whether BA/AH-DPI can regulate the inflammatory process by modulating the secretion of cytokines, the application also measured the concentrations of inflammatory factors IL-4, IL-6, IL-8, and IL-1β in BALF to determine the protective and therapeutic effects of BA/AH-DPI in the pathogenesis of Bleo-induced idiopathic pulmonary fibrosis.
# The above BALF supernatant was measured by enzyme-linked immunosorbent assay (ELISA) to detect the concentration levels of inflammatory factors IL-4, IL-6, IL-8, IL-1β, as well as IFN-γ and TGF-β1. […]
# [5] = test system: rats having Bleo-induced pulmonary fibrosis; assay: HE staining of rat lung tissue; format: in vivo; details: Bleo rats after 28 days, compared with Bleo model group
# Experimental: as §1
# [6] = test system: SOD, MDA, LDH in rat lung tissue; assay: Oxidative stress indicators (SOD, MDA, LDH) in lung tissue homogenates; format: in vivo; details: Bleo rats after 28 days, compared with Bleo group
# Experimental: as §1
# Oxidative stress played an important role in the process of Bleo-induced pulmonary fibrosis. […] Therefore, in the application, SOD was measured in conjunction with MDA in order to observe the role in pulmonary fibrosis. […]
# [7] = test system: rats having Bleo-induced pulmonary fibrosis; assay: Hydroxyproline (Hyp) in lung tissue homogenates by ELISA; format: in vivo, rat; details: Bleo rats after 28 days of treatment; Bleo group 118.33, normal 76.43
# Experimental: as §1
# [8] = test system: rats having Bleo-induced pulmonary fibrosis; assay: Body weight changes in rats; format: in vivo, rat; details: days 1-28, compared with Bleo group
# Experimental: as §1
# [9] = test system: rats having Bleo-induced pulmonary fibrosis; assay: Pulmonary function index assay (EMKA pulmonary function detector); format: in vivo, rat; details: day 28, DPI intratracheal or tail i.v. 9 mg/kg, pirfenidone gavage, daily 28 days
# Experimental: 48 SPF healthy SD male rats (weight of 180-220 g) were randomly divided into 8 groups, 6 rats for each group: (1) normal group (control group): normal rearing in the animal center; (2) sham group: this group was given the same dose of air by pulmonary administration; (3) Bleo model group: 100 μL of Bleo solution with a concentration of 12.5 mg/mL was administered through the tracheal intubation, and the rats were rotated for 5 min after drug administration for use, referred to as the Bleo group or the model group in the present application; (4) Bleo+BA-DPI group: the same modeling method as the Bleo model group was used, and BA-DPI was administered through the tracheal intubation via DP-4 rat dry powder lung drug delivery device (manufacturer: Beijing YSKD Biotechnology Co.) at a dose of 9 mg/kg, 3 mg per day for 28 days; (5) Bleo+AH-DPI group (same method as 4); (6) Bleo+BA/AH-DPI group (same method as 4); (7) Bleo+tail intravenous injection group: the formulation solution was administered by tail intravenous injection at a concentration of 3 mg/ml, 9 mg/kg, for a total of 28 days, starting from the second day after the modeling; (8) Bleo+pirfenidone group: 2 ml per day at a concentration of 11.6 mg/ml was administered by gavage starting from the second day after successful modeling for 28 days.
# Lung DPI dry powder administration operation: DPI powder was weighed precisely and placed in the storage room of the drug delivery device, the DP4 dry powder delivery device was installed, connected to the syringe with 1.5-2 ml of air, the rat was laid on the tracheal intubation platform after anesthesia, the rat laryngoscope was used to expose the tracheal opening, when the tracheal opening was open, the nozzle of the drug delivery device was immediately inserted through the tracheal opening to the bronchial fork, and the air was immediately pushed into the drug delivery device to push DPI fine powder into the rat's lung. The rat in sham group was pushed with 1.5-2 ml of air (not including the drug) as described above.
# Various respiratory indices, including inspiratory duration (Ti), expiratory duration (Te), maximal inspiratory flow (PIF), maximal expiratory flow (PEF), tidal volume (TV), relaxation time (RT), and expiratory volume (EV), in freely moving rats were measured by EMKA pulmonary function detector at the completion of modeling on day 28.
smiles,measurement,setting,value
"CC(C)C[C@H](N)C(=O)O [L-leu, L-leucine]",D10,[1],9.39 μm
same,D50,[1],50.97 μm
same,D90,[1],84.70 μm
same,SMD (Sauter mean diameter),[1],16.64 μm
same,VMD (Volume median diameter),[1],49.54 μm
same,<3 μm,[1]; fraction of particles,3.80%
same,<5 μm,[1]; fraction of particles,6.08%
"Cc1ccc(=O)n(-c2ccccc2)c1 [pirfenidone, Pirfenidone]",Total protein concentration in BALF,[2],10.59 ± 1.47 mg/mL
same,Lung factor,[3],6.15 ± 0.84
same,MPO activity in serum,MPO,significantly inhibited MPO activity
same,IL-1β level in BALF,[4],significantly lower
same,IL-4 level in BALF,[4],significantly lower
same,IL-8 level in BALF,[4],significantly lower
same,Histopathology of lung tissue (HE staining),[5],less fibrotic features and inflammatory infiltration
same,LDH content in lung tissue,[6],significantly decreased
same,MDA level in lung tissue,[6],significantly decreased
same,SOD antioxidant index in lung tissue,[6],significantly increased
same,Hyp content in lung tissue,[7],83.40 pg/mL
same,Body weight of rats,[8],significantly different from that in the Bleo group from day 14
same,EV (expiratory volume),[9],1.23 ± 0.30 mL
same,PEF (maximal expiratory flow),[9],10.76 ± 5.93 mL/s
same,PIF (maximal inspiratory flow),[9],12.52 ± 4.68 mL/s
same,RT (relaxation time),[9],158.82 ± 63.19 ms
same,TV (tidal volume),[9],1.22 ± 0.30 mL
same,Te (expiratory duration),[9],265.48 ± 99.45 ms
same,Ti (inspiratory duration),[9],180.56 ± 49.34 ms
